Assay results reported in patent publication US4239778A, “Azaprostanoic acid analogs and their use as inhibitors of platelet aggregation” (priority 1978, dated 1980).
“Also recorded” adds a separate entry of the source.

Tests used:
[1] = system: aspirin-treated platelets (human PRP); assay: Aggregation of aspirin-treated platelets by transferred externally generated endoperoxides/thromboxane A2; assay type: cell-based
Description: The effect of trans-13-azaprostanoic acid on platelet aggregation induced by externally generated endoperoxides and thromboxane A2 was investigated. The endoperoxides and thromboxane A2 were generated by the addition of 500 μM arachidonic acid to 0.75 ml of human platelet-rich plasma (PRP). […] The endoperoxides and thromboxane transferred caused the aspirin-treated platelets to aggregate.
It has been shown that the formation of thromboxanes is closely associated with the initiation of platelet aggregation and occurs rapidly (within 30 sec.) when induced by arachidonic acid. Therefore, the aggregating effect of thromboxane A2 can be studied by first generating the agent in one sample of PRP, and then transferring a portion of this to a second sample of PRP. […] Thus, any aggregation induced by transferred material is due to thromboxane A2 and/or prostaglandin endoperoxides. […] This experiment was repeated several times with identical results.

[2] = system: platelet conversion of AA to thromboxane B2 (TXB2); assay: TXB2 formation in platelet rich plasma aggregated with arachidonic acid (radioimmunoassay); assay type: cell-based; conditions: AA 500 μM alone
Description: (§1) Platelet rich plasma was aggregated with 500 μM arachidonic acid and three minutes following arachidonate addition, aliquots of the plasma were drawn for TXB2 determinations.

platelet rich plasma = assay: Platelet aggregation with 500 μM arachidonic acid (Table IV); assay type: cell-based
Description: as §1

[3] = molecular target: T1, prostaglandin synthetase (cyclooxygenase) (Bos taurus, UniProt O62664); assay: Inhibition of prostaglandin synthetase (cyclooxygenase): arachidonic acid-dependent formation of adrenochrome from L-epinephrine; assay type: biochemical, bovine (seminal vesicles); conditions: for inhibition of cyclooxygenase (in words) / inhibition at 500 µM: 5×10^-4 M; for inhibition at 500 µM: read-out: inhibitory activity on cyclooxygenase
T1 construct: adrenochrome assay with arachidonic acid
T1 sequence (O62664 25-600): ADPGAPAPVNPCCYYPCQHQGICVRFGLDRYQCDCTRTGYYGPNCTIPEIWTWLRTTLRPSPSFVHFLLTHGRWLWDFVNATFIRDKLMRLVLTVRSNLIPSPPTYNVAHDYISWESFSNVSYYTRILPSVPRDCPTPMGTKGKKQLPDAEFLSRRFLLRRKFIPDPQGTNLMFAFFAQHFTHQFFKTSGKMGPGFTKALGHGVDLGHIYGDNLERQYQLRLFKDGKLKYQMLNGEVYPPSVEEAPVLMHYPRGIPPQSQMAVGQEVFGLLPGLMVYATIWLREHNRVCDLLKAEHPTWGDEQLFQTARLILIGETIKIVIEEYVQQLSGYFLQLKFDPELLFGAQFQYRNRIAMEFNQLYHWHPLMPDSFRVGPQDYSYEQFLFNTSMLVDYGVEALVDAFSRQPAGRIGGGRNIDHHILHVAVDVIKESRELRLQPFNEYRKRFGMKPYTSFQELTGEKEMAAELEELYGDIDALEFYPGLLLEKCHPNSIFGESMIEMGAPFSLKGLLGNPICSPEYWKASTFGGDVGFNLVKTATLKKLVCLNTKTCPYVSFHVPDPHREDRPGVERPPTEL
Description: A representative sample of the 13-azaprostanoic acid derivatives, and cis-15-azaprostanoic acid were tested for their effect as inhibitors of prostaglandin synthetase (cyclooxygenase). The basis of the assay is the measurement of the arachidonic acid-dependent formation of adrenochrome from L-peinephrine during prostaglandin biosynthesis [See, generally, the procedure of Takaguchi, et al., Prostaglandins, 2, 169 (1972)].
In order to check the possibility that the compounds might be inhibitors of the cyclooxygenase enzyme, they were tested in a standard prostaglandin biosynthesis assay according to the method of Takagushi, et al., Prostaglandins, 2, 169 (1972). The basis of the assay is the measurement of the arachidonic acid-dependent formation of adrenochrome from L-epinephrine during prostaglandin biosynthesis. Although the assay is an indirect measurement of cyclooxygenase activity, it offers the advantage that total enzyme activity is measured and is not limited to the measurement of any one product of the biotransformation.

platelets (human PRP) = assay: Arachidonic acid-induced platelet aggregation (method of Born); assay type: cell-based; conditions: for inhibition at 10 µM: Homo sapiens, Platelet, human PRP; for inhibition of arachidonic acid-induced platelet aggregation (in words): 10 μM inhibitor
Description: The effect of various azaprostanoic acids of the invention on arachidonic acid-induced platelet aggregation was determined according to the method of Born, Nature, 194, 927 (1962). At a concentration of 10 μM, trans-13-azaprostanoic acid, and cis-15-azaprostanoic acid, inhibit aggregation 100% and 91%, respectively in response to 300 μM arachidonare. Both the cis and trans-13-aza-20-homoprostanoic acid analogs show significant inhibitory activity, 50% and 71%, respectively.
The relative inhibitory activities of the azaprostanoic acids were determined by varying the concentration of arachidonic acid while keeping the inhibitor concentration constant.

[4] = system: platelets (human platelet rich plasma); assay: ADP-induced primary (reversible) platelet aggregation; assay type: cell-based; conditions: 100 μM, 2 min. pretreatment; 10 μM ADP
Description: No effect was observed on the ADP-induced primary aggregation of platelets.

cyclooxygenase = conditions: cited from earlier work
ADP-induced aggregation = conditions: vs PGE1; cited from earlier work
thromboxane synthetase = conditions: cited from earlier work
[5] = in vivo; cited from earlier work
[6] = 10^-5 M (10 μM) inhibitor, 300 μM arachidonate
[7] = 10^-5 M inhibitor, 400 μM arachidonate
[8] = 10^-5 M inhibitor, 500 μM arachidonate

Question: With `CCCCC/C=C\C/C=C\C/C=C\C/C=C\CCCC(=O)O` [Arachidonic Acid (AA), Arachidonic Acid] as the compound, how does the “aggregation of aspirin-treated platelets by arachidonic acid” value ([1]; 500 μM arachidonic acid, aspirin 0.5 mg/ml) read?
Answer: did not cause aggregation

Question: What about the TXB2 [2] of the same compound?
Answer: 1179 ± 37 ng/mL

Question: And the “% Aggregation” value (platelet rich plasma; AA 500 μM alone)?
Answer: 80%

Question: Which results are given for `CCCCCCCN[C@H]1CCC[C@H]1CCCCCCC(=O)O` (relative stereo) [Example 4 cis, cis-13-Azaprostanoic acid]?
Answer: inhibition of cyclooxygenase (in words) [3]: did not significantly inhibit; inhibition at 10 µM (platelets (human PRP); [6]): 43%; inhibition at 10 µM (platelets (human PRP); [7]): 11%; inhibition at 10 µM (platelets (human PRP); [8]): 0%; effect on ADP-induced primary aggregation [4]: did not alter reversible, primary phase aggregation

Question: For `CCCCCCCN[C@@H]1CCC[C@H]1CCCCCCC(=O)O` (relative stereo) [Example 4 trans, trans-13-azaprostanoic acid], which “inhibition of cyclooxygenase (in words)” value [3] is on record?
Answer: did not significantly inhibit

Question: And the inhibition at 10 µM (platelets (human PRP); [6])?
Answer: 100%

Question: And the inhibition at 10 µM (platelets (human PRP); [7])?
Answer: 66%

Question: What about the inhibition at 10 µM (platelets (human PRP); [8]) of the same compound?
Answer: 19%

Question: What about the “inhibition of platelet aggregation (in words)” value (platelets (human PRP); summary of screening) of the same compound?
Answer: potent inhibitors of platelet aggregation

Question: What about the “effect on ADP-induced primary aggregation” value (“effect” below) [4] of the same compound?
Answer: did not alter reversible, primary phase aggregation

Question: What about the “aggregation induced by transferred thromboxane A2/endoperoxide mixture” value ([1]; 100 μM pre-incubation, aspirin-treated platelets) of the same compound?
Answer: totally inhibited; also recorded: no aggregation was observed

Question: With `CCCCCCCN[C@@H]1CCC[C@@H]1CCCCCCC(=O)O` (relative stereo) [cis-13-aza] as the compound, how does the “inhibition of arachidonic acid-induced platelet aggregation (in words)” value (platelets (human PRP)) read?
Answer: inactive

Question: Which inhibition at 10 µM (platelets (human PRP); [6]) does the source give for `CCCCCNCC[C@H]1CCC[C@H]1CCCCCCC(=O)O` (relative stereo) [Example 8 cis, 15-Azaprostanoic acid] here?
Answer: 91%

Question: What about the inhibition at 10 µM (platelets (human PRP); [7]) of the same compound?
Answer: 16%

Question: And the inhibition at 10 µM (platelets (human PRP); [8])?
Answer: 0%

Question: And the “effect” value [4]?
Answer: did not alter reversible, primary phase aggregation

Question: Which results are given for `CCCCCCN[C@@H]1CCC[C@H]1CCCCCCC(=O)O` (relative stereo) [Example 5 trans, trans-13-aza-20-norprostanoic acid]?
Answer: inhibition of cyclooxygenase (in words) [3]: did not significantly inhibit; inhibition at 10 µM (platelets (human PRP); [6]): 14%; inhibition at 10 µM (platelets (human PRP); [7]): 0%; inhibition at 10 µM (platelets (human PRP); [8]): 0%

Question: For `COc1ccc2c(c1)c(CC(=O)O)c(C)n2C(=O)c1ccc(Cl)cc1` [indomethacin, reference compound], which “inhibition of prostaglandin biosynthesis (in words)” value ([3]; indomethacin 2×10^-5 M) is on record?
Answer: completely inhibited

Question: What about the inhibition at 20 µM ([3]; read-out: inhibition of enzyme activity) of the same compound?
Answer: 100%

Question: And the “inhibition of aggregation (in words)” value (platelet rich plasma; indomethacin 20 μM)?
Answer: totally blocks aggregation

Question: And the “inhibition of prostaglandin biosynthesis / cyclooxygenase (in words)” value (cyclooxygenase)?
Answer: inhibit prostaglandin biosynthesis by blocking the conversion of substrate fatty acids to endoperoxides

Question: Which inhibition at 500 µM [3] does the source give for `CCCCCCCCN[C@H]1CCC[C@H]1CCCCCCC(=O)O` (relative stereo) [Example 6 cis, cis-13-Aza-20-homoprostanoic acid] here?
Answer: ~30%

Question: And the inhibition at 10 µM (platelets (human PRP); [6])?
Answer: 50%

Question: And the inhibition at 10 µM (platelets (human PRP); [7])?
Answer: 11%

Question: And the inhibition at 10 µM (platelets (human PRP); [8])?
Answer: 0%

Question: Which “potency relative to PGE1 as inhibitor of ADP-induced aggregation (in words)” value (ADP-induced aggregation) does the source give for `CCCC[C@H](O)/C=C/[C@H]1[C@H](O)CC(=O)[C@@H]1CCCCCCC(=O)O` [Example 20-nor-PGE1, 20-nor-PGE1] here?
Answer: only half as potent as PGE1

Question: Which “potency relative to PGE1 as inhibitor of ADP-induced aggregation” value (ADP-induced aggregation) does the source give for `CCCCCC[C@H](O)/C=C/[C@H]1[C@H](O)CC(=O)[C@@H]1CCCCCCC(=O)O` [Example 20-homo-PGE1, 20-homo-PGE1] here?
Answer: 3.82 times

Question: With `CN(C)CCCOc1nn(Cc2ccccc2)c2ccccc12` [Benzydamine] as the compound, how does the “inhibition of thromboxane synthetase (in words)” value (thromboxane synthetase) read?
Answer: more than twice as effective in inhibiting thromboxane synthetase than in inhibiting prostaglandin biosynthesis (cyclooxygenase)

Question: For `CCCCC[C@H](O)/C=C/[C@H]1C(=O)C[C@H](O)[C@@H]1C/C=C\CCCC(=O)O` [PGD2], which “biological half-life (in words)” value [5] is on record?
Answer: very short biological half-lives

Question: Which inhibition at 500 µM [3] does the source give for `CCCCCCCCN[C@@H]1CCC[C@H]1CCCCCCC(=O)O` (relative stereo) [Example 6 trans, trans-13-aza-20-homoprostanoic acid] here?
Answer: ~30%

Question: And the inhibition at 10 µM (platelets (human PRP); [6])?
Answer: 71%

Question: And the inhibition at 10 µM (platelets (human PRP); [7])?
Answer: 7%

Question: What about the inhibition at 10 µM (platelets (human PRP); [8]) of the same compound?
Answer: 0%

Question: With `O=C(O)CCCCCC[C@@H]1CCC[C@H]1NCc1ccccc1` (relative stereo) [Example 3 trans] as the compound, how does the “inhibition of cyclooxygenase (in words)” value [3] read?
Answer: did not significantly inhibit

Question: And the “inhibition of arachidonic acid-induced platelet aggregation (in words)” value (platelets (human PRP))?
Answer: inactive

Question: What about the inhibition at 10 µM (platelets (human PRP); [6]) of the same compound?
Answer: 0%

Question: And the inhibition at 10 µM (platelets (human PRP); [7])?
Answer: 0%

Question: And the inhibition at 10 µM (platelets (human PRP); [8])?
Answer: 0%

Question: What about the “effect” value [4] of the same compound?
Answer: did not alter reversible, primary phase aggregation

Question: For `CCCCC[C@H](O)/C=C/[C@H]1[C@H](O)CC(=O)[C@@H]1CCCCCCC(=O)O` [PGE1], which “biological half-life (in words)” value [5] is on record?
Answer: very short biological half-lives
